Data reported in patent publication US5393775A, “Benzopyran compounds” (Adir et Compagnie, priority 1992, dated 1995).
pIC50: −log10 of the molar value.

Key:
[1] = system: lipoxygenase of human polynuclear cells (LTB4); test: inhibition of the synthesis of LTB4 (lipoxygenase) in human polynuclear cells activated by A23187; assay type: cell-based; details: for inhibition at 10 µM: at 10^-5 M; for pIC50: read-out: INHIBITION OF THE SYNTHESIS OF LTB4, CON[…] BY 50% (IC50 in M), read-out: INHIBITION OF THE SYNTHESIS OF LTB4, CONCENTRATION INHIBITING SYNTHESIS BY 50% (IC50 in M)
Description: The inhibitory activity of the compounds of formula (I) used according to the invention on the synthesis of eicosanoids is measured on washed human polynuclear cells, in the presence or in the absence of the compound to be tested, after activation of these cells by calcium (calcium ionophore A23187).
The production of the main eicosanoid, resulting from lipoxygenase, produced by human polynuclear cells: leukotriene B4 (LTB4), is measured by a radioimmunological test.

[2] = system: rat brain homogenates (peroxidation induced by the Fe^2+ /ascorbate system); test: lipid peroxidation induced by Fe^2+/ascorbate on rat brain homogenates; assay type: biochemical; details: at 10^-5 M, 60 minutes at 37° C.
Description: (§1) The action of the compounds of the invention, which are capable of trapping .OH radicals, was studied, on the one hand, on the spontaneous peroxidation of lipids and, on the other hand, on the peroxidation induced by the Fe^2+ /ascorbate (10 μm/250 μm) system on rat brain homogenates.
(§2) During the measurement of the spontaneous lipid peroxidation, the rat brain homogenates are placed in the presence or in the absence of the compounds to be tested for 60 minutes at 37° C. The reaction is halted at 0° C. and the quantitative determination of malondialdehyde is carried out using thiobarbituric acid by the method of Yagi, K., (1976), Biochem. Med., 15, 212-216. Lipid peroxidation is determined by the substances reacting with thiobarbituric acid expressed in nanomoles of malondialdehyde.
During the measurement of the induced lipid peroxidation, the methodology is identical to the above with the exception of the addition to the homogenate of the radical inductive system: Fe^2+ /ascorbate. The reference substances are probucol and vitamin E.
(§3) The concentrations of the tested compounds which inhibit by 50 % the peroxidation of the substrate or the antioxidizing activity of the compounds of the invention at a concentration of 10^-5 M are calculated.

[3] = system: rat brain homogenates (spontaneous peroxidation of lipids); test: spontaneous lipid peroxidation on rat brain homogenates; assay type: biochemical; details: at 10^-5 M, 60 minutes at 37° C.
Description: as §1, §2, §3

Compound: Cc1c(C)c2c(c(C)c1O)CCC(C)(C(=S)Nc1ccccc1)O2 (stereo not drawn) [Example 2, N-phenyl-6-hydroxy-3,4-dihydro-2,5,7,8-tetramethyl-2H-1-benzopyran-2-thiocarboxamide]
- inhibition at 10 µM [1]: > 99%
- pIC50 [1]: 6.52
- INHIBITION OF THE PEROXIDATION WITH RESPECT TO THE CONTROL, INDUCED PEROXIDATION [2]: 100
- INHIBITION OF THE PEROXIDATION WITH RESPECT TO THE CONTROL, SPONTANEOUS PEROXIDATION [3]: 100

Compound: Cc1cc(C)c(NC(=S)C2(C)CCc3c(C)c(O)c(C)c(C)c3O2)cc1C (stereo not drawn) [Example 4, N-(2,4,5-trimethylphenyl)-6-hydroxy-3,4-dihydro-2,5,7,8-tetramethyl-2H-1-benzopyran-2-thiocarboxamide]
- inhibition at 10 µM [1]: > 99%
- pIC50 [1]: 6.30
- INHIBITION OF THE PEROXIDATION WITH RESPECT TO THE CONTROL, INDUCED PEROXIDATION [2]: 100
- INHIBITION OF THE PEROXIDATION WITH RESPECT TO THE CONTROL, SPONTANEOUS PEROXIDATION [3]: 98

Compound: Cc1cc(C)nc(NC(=S)C2(C)CCc3c(C)c(O)c(C)c(C)c3O2)c1 (stereo not drawn) [Example 6, N-(4,6-dimethylpyrid-2-yl)-6-hydroxy-3,4-dihydro-2,5,7,8-tetramethyl-2H-1-benzopyran-2-thiocarboxamide]
- inhibition at 10 µM [1]: > 99%
- pIC50 [1]: 6.22

Compound: COc1cc(NC(=S)C2(C)CCc3c(C)c(O)c(C)c(C)c3O2)cc(OC)c1OC (stereo not drawn) [Example 8, N-(3,4,5-trimethoxyphenyl)-6-hydroxy-3,4-dihydro-2,5,7,8-tetramethyl-2H-1-benzopyran-2-thiocarboxamide]
- inhibition at 10 µM [1]: > 99%

Compound: Cc1cccc(C)c1NC(=S)C1(C)CCc2c(C)c(O)c(C)c(C)c2O1 (stereo not drawn) [Example 26, N-(2,6-dimethylphenyl)-6-hydroxy-3,4-dihydro-2,5,7,8-tetramethyl-2H-1-benzopyran-2-thiocarboxamide]
- inhibition at 10 µM [1]: > 99%
- pIC50 [1]: 6.30
- INHIBITION OF THE PEROXIDATION WITH RESPECT TO THE CONTROL, INDUCED PEROXIDATION [2]: 100
- INHIBITION OF THE PEROXIDATION WITH RESPECT TO THE CONTROL, SPONTANEOUS PEROXIDATION [3]: 99

Compound: Cc1c(C)c2c(c(C)c1O)CCC(C)(C(=S)N1CCN(c3ccccc3)CC1)O2 (stereo not drawn) [Example 84, 1-[(3,4-dihydro-6-hydroxy-2,5,7,8-tetramethyl-2H-1-benzopyran-2-yl)thiocarbonyl]-4-phenylpiperezine]
- inhibition at 10 µM [1]: > 99%
- pIC50 [1]: 6.52

Compound: Cc1c(C)c2c(c(C)c1O)CCC(C)(C(=S)N1CCN(c3ccccn3)CC1)O2 (stereo not drawn) [Example 86, 1-[(3,4-dihydro-6-hydroxy-2,5,7,8-tetramethyl-2H-1-benzopyran-2-yl)thiocarbonyl]-4-(2-pyridyl)piperazine]
- inhibition at 10 µM [1]: > 99%
- pIC50 [1]: 6.70

Compound: Cc1c(C)c2c(c(C)c1O)CCC(C)(C(=S)N1CCN(c3ccc(F)cc3)CC1)O2 (stereo not drawn) [Example 88, 1-[(3,4-dihydro-6-hydroxy-2,5,7,8-tetramethyl-2H-1-benzopyran-2-yl)thiocarbonyl]-4-(4-fluorophenyl)piperazine]
- inhibition at 10 µM [1]: > 99%
- pIC50 [1]: 7.00

Compound: Cc1c(C)c2c(c(C)c1O)CCC(C)(C(=S)N1CCN(c3ccc(Cl)cc3)CC1)O2 (stereo not drawn) [Example 92, 1-[(3,4-dihydro-6-hydroxy-2,5,7,8-tetramethyl-2H-1-benzopyran-2-yl)thiocarbonyl]-4-(4-chlorophenyl)piperazine]
- inhibition at 10 µM [1]: > 99%
- pIC50 [1]: 6.70

Compound: COc1ccc(CN2CCN(C(=S)C3(C)CCc4c(C)c(O)c(C)c(C)c4O3)CC2)c(OC)c1OC (stereo not drawn) [Example 94, 1-[(3,4-dihydro-6-hydroxy-2,5,7,8-tetramethyl-2H-1-benzopyran-2-yl)thiocarbonyl]-4-(2,3,4-trimethoxybenzyl)piperazine]
- inhibition at 10 µM [1]: > 99%
- pIC50 [1]: 6.52

Compound: Cc1c(C)c2c(c(C)c1O)CCC(C)(C(=S)N1CCN(C(O)(c3ccccc3)c3ccccc3)CC1)O2 (stereo not drawn) [Example 98, 1-[(3,4-dihydro-6-hydroxy-2,5,7,8-tetramethyl-2H-1-benzopyran-2-yl)thiocarbonyl]-4-(1-hydroxy-1,1-diphenylmethyl)piperazine]
- inhibition at 10 µM [1]: > 99%
- pIC50 [1]: 5.89
